# US20150315188A1, “COMPOUNDS AND METHODS FOR TREATMENT OF HYPERTENSION” (MEDIVATION TECHNOLOGIES, INC., priority 2012, published 2015)
# How the values were obtained:
# [1] = target: T1, Human adrenergic α2A receptor (Homo sapiens, UniProt P08913); experiment: β-Arrestin GPCR functional assay, adrenergic α2A (Protocol B); assay type: cell-based; details: β-arrestin, antagonist vs nor-epinephrine EC80
# T1 sequence (P08913 1-465): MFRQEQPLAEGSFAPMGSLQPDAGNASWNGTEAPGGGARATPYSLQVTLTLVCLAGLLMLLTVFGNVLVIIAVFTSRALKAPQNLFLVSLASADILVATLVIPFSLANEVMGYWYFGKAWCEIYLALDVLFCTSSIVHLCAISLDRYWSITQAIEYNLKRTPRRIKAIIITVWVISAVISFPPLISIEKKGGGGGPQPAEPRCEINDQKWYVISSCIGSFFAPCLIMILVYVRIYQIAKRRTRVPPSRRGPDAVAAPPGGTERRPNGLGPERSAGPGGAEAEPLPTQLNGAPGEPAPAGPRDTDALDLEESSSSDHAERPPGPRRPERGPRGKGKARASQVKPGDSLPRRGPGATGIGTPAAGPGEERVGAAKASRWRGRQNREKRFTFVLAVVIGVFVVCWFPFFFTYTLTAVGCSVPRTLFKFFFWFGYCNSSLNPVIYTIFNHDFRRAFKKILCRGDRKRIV
# Description: To evaluate the activity of compounds in β-Arrestin GPCR functional assays, recombinant CHO cell line (DiscoveRX), over expressed with human adrenergic α2A receptor were used. The experiment was done with kit of DiscoveRX as per recommended protocol of the supplier. Cells were harvested from culture flask using cell dissociation solution (CDS) and plated at a density of 12,000 cells/well in CP reagent (supplied with the kit) in a half area 96-well white polystyrene plate. After 24 h incubation at 37° C., compounds at various concentrations in 1% (final) DMSO were charged to the cells for 30 min at 37° C. Active nor-epinephrine (-NE) at its EC80 concentrations (270 nM) were then added to the cells and incubated for another 90 min at 37° C. Detection mix was prepared by mixing of Path Hunter cell assay buffer, Emerald II solution and Galactone star solution in a ratio of 19:5:1 and incubated with the cells for 60 min at RT in the dark. The reading was taken in Envision at luminescence mode. Biochemical assay results are presented as the percent Inhibition in Table B2a, or IC50 values in Table B2b.
# [2] = target: T1, Human adrenergic α2A receptor; experiment: Radioligand binding, adrenergic α2A (Protocol Group B); design: purchased Milipore (Millipore); details: Protocol Group B; for Percentage inhibition of ligand binding, Adrenergic α2A (0.1 μM): 0.1 μM compound; for Percentage inhibition of ligand binding, Adrenergic α2A (0.3 μM): 0.3 μM compound; for Ki: estimated Ki
# In short: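 Compounds (1% DMSO vehicle, various concentrations) competed against 2 nM [^3H]MK-912 on recombinant receptor membranes for 60 min at 25° C, Tris-HCl pH 7.4 buffer with Mg2+, Ca2+, BSA. Bound radioligand filtered and counted; 10 μM rauwolscine set nonspecific binding. Values: percent inhibition of specific binding or estimated Ki.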
# [3] = target: T2, Human adrenergic α2B receptor (Homo sapiens, UniProt P18089); experiment: β-Arrestin GPCR functional assay, adrenergic α2B (Protocol B); assay type: cell-based; details: β-arrestin, antagonist vs nor-epinephrine EC80; read-out: IC50 Adrenergic α2B
# T2 sequence (P18089 1-450): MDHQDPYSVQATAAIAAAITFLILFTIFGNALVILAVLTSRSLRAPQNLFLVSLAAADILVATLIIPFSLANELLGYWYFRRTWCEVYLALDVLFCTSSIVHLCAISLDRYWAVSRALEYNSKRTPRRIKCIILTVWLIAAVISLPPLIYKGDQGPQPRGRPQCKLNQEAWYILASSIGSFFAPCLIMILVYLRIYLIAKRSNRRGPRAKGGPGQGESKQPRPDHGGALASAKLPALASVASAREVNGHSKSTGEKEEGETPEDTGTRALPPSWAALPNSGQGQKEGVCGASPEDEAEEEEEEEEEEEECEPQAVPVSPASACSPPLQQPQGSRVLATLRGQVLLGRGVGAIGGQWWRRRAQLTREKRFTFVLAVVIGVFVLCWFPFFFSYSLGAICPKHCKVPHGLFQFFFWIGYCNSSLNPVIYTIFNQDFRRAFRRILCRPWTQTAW
# In short: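 CHO cells overexpressing human α2B (PathHunter β-arrestin), 12,000 per well, 24 h at 37° C; compounds in 1% DMSO 30 min, then 50 nM norepinephrine (EC80) 90 min at 37° C.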
# [4] = target: T3, Human adrenergic α1B receptor (Homo sapiens, UniProt P35368); experiment: Radioligand binding, adrenergic α1B (Protocol Group B); design: purchased Milipore (Millipore); details: Protocol Group B; for Percentage inhibition of ligand binding, Adrenergic α1B (0.1 μM): 0.1 μM compound; for Percentage inhibition of ligand binding, Adrenergic α1B (0.3 μM): 0.3 μM compound; for Ki: estimated Ki
# T3 sequence (P35368 1-520): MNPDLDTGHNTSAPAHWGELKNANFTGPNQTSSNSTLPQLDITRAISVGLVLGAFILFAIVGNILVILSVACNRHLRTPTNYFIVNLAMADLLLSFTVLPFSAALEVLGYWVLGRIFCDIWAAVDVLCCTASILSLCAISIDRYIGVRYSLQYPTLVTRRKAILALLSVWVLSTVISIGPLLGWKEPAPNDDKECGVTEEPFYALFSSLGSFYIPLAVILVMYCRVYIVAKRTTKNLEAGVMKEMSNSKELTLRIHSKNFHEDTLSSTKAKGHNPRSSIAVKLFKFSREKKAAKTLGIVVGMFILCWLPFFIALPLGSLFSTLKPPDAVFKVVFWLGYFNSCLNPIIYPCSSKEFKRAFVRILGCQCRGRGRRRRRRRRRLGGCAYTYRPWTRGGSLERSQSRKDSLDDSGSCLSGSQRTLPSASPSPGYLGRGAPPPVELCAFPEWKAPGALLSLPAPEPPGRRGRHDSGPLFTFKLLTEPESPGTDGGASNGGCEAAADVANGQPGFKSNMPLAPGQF
# In short: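 Values are percent inhibition of specific [3H]prazosin (0.3 nM) binding or estimated Ki, from filtration counting. Human α1B recombinant membranes, Tris-HCl pH 7.4 buffer with MgCl2 and EDTA, 60 min at 25 °C, 1% DMSO vehicle; 10 μM prazosin defined nonspecific binding.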
# [5] = target: T2, Human adrenergic α2B receptor; experiment: Radioligand binding, adrenergic α2B (Protocol Group B); design: purchased Milipore (Millipore); details: Protocol Group B; for Percentage inhibition of ligand binding, Adrenergic α2B (10 nM): 10 nM compound, 0.01 µM; for Percentage inhibition of ligand binding, Adrenergic α2B (30 nM): 30 nM compound, 0.03 µM; for Ki: estimated Ki, read-out: Ki α2B
# In short: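 Compounds at various concentrations in 1% DMSO were tested on recombinant membranes in Tris-HCl pH 7.4 buffer containing MgCl2, CaCl2 and 0.2% BSA.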
compound,measurement,setting,value
"Cc1cc(F)c2c(c1)c1c(n2CC(C)(O)c2ccncc2)CCN2CCCC12 (single isomer, unassigned) [81b]",IC50,[1],1650 nM
same,"Percentage inhibition of ligand binding, Adrenergic α2A (0.1 μM)",[2],68%
same,"Percentage inhibition of ligand binding, Adrenergic α2A (0.3 μM)",[2],85%
same,Ki,[2],27.3 nM
same,IC50,[3],15 nM
same,"Percentage inhibition of ligand binding, Adrenergic α1B (0.1 μM)",[4],49%
same,"Percentage inhibition of ligand binding, Adrenergic α1B (0.3 μM)",[4],76%
same,Ki,[4],35.6 nM
same,"Percentage inhibition of ligand binding, Adrenergic α2B (10 nM)",[5],98%
same,"Percentage inhibition of ligand binding, Adrenergic α2B (30 nM)",[5],100%
same,"Percentage inhibition of ligand binding, Adrenergic α2B (0.1 μM)","[5]; 0.1 μM compound, 0.1 µM",100%
same,Ki,[5],0.93 nM
"Cc1ccc2c(c1F)c1c(n2CC(C)(O)c2cccnc2)CCN2CCCC12 (single isomer, unassigned) [87c]",IC50,[1],787 nM
same,"Percentage inhibition of ligand binding, Adrenergic α2A (0.1 μM)",[2],85%
same,"Percentage inhibition of ligand binding, Adrenergic α2A (0.3 μM)",[2],94%
same,Ki,[2],8.9 nM
same,IC50,[3],13 nM
same,"Percentage inhibition of ligand binding, Adrenergic α1B (0.1 μM)",[4],62%
same,"Percentage inhibition of ligand binding, Adrenergic α1B (0.3 μM)",[4],86%
same,Ki,[4],26.2 nM
same,"Percentage inhibition of ligand binding, Adrenergic α2B (10 nM)",[5],96%
same,"Percentage inhibition of ligand binding, Adrenergic α2B (30 nM)",[5],99%
same,Ki,[5],0.91 nM
"Cc1ccc2c(c1F)c1c(n2CC(C)(O)c2cccnc2)CCN2CCCC12 (single isomer, unassigned) [87d]",IC50,[1],3680 nM
same,"Percentage inhibition of ligand binding, Adrenergic α2A (0.1 μM)",[2],57%
same,"Percentage inhibition of ligand binding, Adrenergic α2A (0.3 μM)",[2],79%
same,Ki,[2],54.9 nM
same,IC50,[3],44 nM
same,"Percentage inhibition of ligand binding, Adrenergic α1B (0.1 μM)",[4],34%
same,"Percentage inhibition of ligand binding, Adrenergic α1B (0.3 μM)",[4],67%
same,"Percentage inhibition of ligand binding, Adrenergic α2B (10 nM)",[5],87%
same,"Percentage inhibition of ligand binding, Adrenergic α2B (30 nM)",[5],97%
same,Ki,[5],1.54 nM
